# Results from patent US20230040247A1, “COMPOUNDS FOR TREATING NEURODEGENERATIVE DISEASES” (Amabiotics, priority 2019, published 2023).
# Test system: endogenous a-synuclein phosphorylation at serine 129
# Assay: huPFFs-induced endogenous a-synuclein phosphorylation at serine 129 in primary cortical cultures (EP1536Y immunofluorescence)
# Type: cell-based, mouse
# Method: The study was designed to evaluate the effects of queuine in an in vitro cell-based experimental model of synucleinopathy. The study aimed to evaluate the impact of queuine on the experimental synucleinopathy, in particular of the Lewy body type, induced by exogenous human preformed a-synuclein fibrils (huPFFs) in cortical cultures of wild-type (WT) mice (Volpicelli-Daley et al. (2011) Neuron. 72:57-7).
# Queuine was evaluated for its capability to afford protection against the induction of endogenous a-synuclein phosphorylation at serine 129 (a surrogate marker of de novo a-synuclein aggregation) triggered by exposure to exogenous human recombinant (unphosphorylated) a-synuclein preformed fibrils (huPFFs).
# Primary cultures of dissociated cortices from embryonic day E18 WT mouse embryos were used as the biological system. Timed pregnant female mice were received from Charles River Laboratories 2 days before initiation of the primary culture. […] At 30 DIV, the neuronal cultures were fixed with PFA, and the effects of the treatments were evaluated by performing two double immunostainings: • (i) D37A6/Syn1 to detect total rodent a-synuclein/human plus rodent non aggregated a-synuclein; • (ii) EP1536Y/Syn211 to detect rodent and human a-synuclein phosphorylated at S129/total human a-synuclein.
# The induction of a-synuclein phosphorylation was quantified by measuring the accumulation of phospho-a-synuclein (length of the phospho-a-synuclein-positive neurite network, number of phospho-a-synuclein positive cell bodies).
# The experimental conditions were performed in quadruplicate (for compound-treated conditions+/−huPFFs) and triplicate (for controls+/−huPFFs) wells. An array of nine individual microscopic fields were acquired in each single well, and 3 channels were recorded for each field (green fluorescence excited @488 nm, red fluorescence excited @594 nm, and phase contrast). […]
# To further evaluate the effects of queuine, the EP1536Y signal was segmented to quantify the phospho-a-synuclein positive neurites. […]
substance,measurement,setting,value
"7-(3,4-trans-4,5-cis-dihydroxy-1-cyclopenten-3-ylaminomethyl)-7-deazaguanine [queuine]",effect on untreated neurones (induction of synuclein phosphorylation at S129),"WT mouse cortical neurones without huPFFs, concentration range tested (10 μM, 1 μM, 0.1 μM)",no effect
same,"EP1536Y immunofluorescence signal, representative of the phosphorylation of a-synuclein","WT mouse cortical neurons exposed to 10 nM huPFFs, queuine pretreatment at 100 nM compared to control (FIG. 1)",decreased
same,decrease of a-synuclein phosphorylation at S129 induced by huPFFs,"huPFFs-treated (10 nM) WT mouse cortical neurones, all doses tested (10 μM, 1 μM, 0.1 μM), normalised to huPFFs condition (FIG. 2), significant",approx. −50%
